Experimental findings from ChEMBL document CHEMBL1201862, “PubChem BioAssay data set” (2004) are described below.

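Method: 48-hour compound exposure of cells in 96-well plates, five concentrations, linear interpolation of endpoints. At the GI50, growth is halved.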 The source made the active and inactive calls. No stated cut-off is given here; in the data, active = GI50 up to about 1.1 µM and inactive = higher.

Test systems include A498; A549; ACHN; BT-549; CCRF-CEM; HT-29; Hs-578T; KM12; M14; MCF7; MDA-MB-231; MDA-N; MOLT-4; NCI-H226; NCI-H460; OVCAR-8; SK-OV-3; U-251; UO-31; HCC 2998.
Assay in all cases: inhibition of tumour cell growth, NCI panel, 48 h

As for `Cc1c2ccccc2c(CSC(=N)N)c2ccccc12`, the GI50 with A498 was 0.19 µM (active); in the experiment with A549 it was 0.216 µM (active); in the experiment on ACHN it was 0.0728 µM (active); in the experiment with BT-549 it was 0.902 µM (active); in the experiment on CCRF-CEM, 0.0203 µM (active); in the experiment with HT-29, 0.163 µM (active). Also, the GI50 with Hs-578T is 0.172 µM (active); in the experiment on KM12 it was 0.218 µM (active); with M14 it was 0.211 µM (active); in the experiment with MCF7, 0.104 µM (active); in the experiment with MDA-MB-231 it was 0.276 µM (active); in the experiment on MDA-N, 0.175 µM (active). Moreover, the GI50 in the experiment on MOLT-4 is 0.0284 µM (active); in the experiment with NCI-H226, 0.247 µM (active); in the experiment with NCI-H460, 0.074 µM (active); in the experiment with OVCAR-8, 0.199 µM (active); with SK-OV-3, 0.344 µM (active); with U-251, 0.176 µM (active). Further, the GI50 with UO-31 was 0.181 µM (active).
Take `CC(=O)c1ccc2c3c1[C@@H]1O[C@@H]1c1cccc(c1-3)[C@@H]1O[C@H]21`: the GI50 was 21.5 µM (inactive) with A498; 14.5 µM (inactive) in the experiment on A549; 21.6 µM (inactive) in the experiment on ACHN; 15.1 µM (inactive) in the experiment on BT-549; 2.86 µM (inactive) with CCRF-CEM; 5.55 µM (inactive) in the experiment with HT-29. Also, the GI50 is 14.9 µM (inactive) in the experiment with Hs-578T; 7.52 µM (inactive) with KM12; 6.85 µM (inactive) in the experiment on M14; 4 µM (inactive) with MCF7; 17.7 µM (inactive) in the experiment on MDA-MB-231; 13.5 µM (inactive) with MDA-N. Also, the GI50 in the experiment on MOLT-4 was 14.1 µM (inactive); in the experiment on NCI-H226 it was 37.8 µM (inactive); in the experiment on OVCAR-8 it was 3.94 µM (inactive); in the experiment on SK-OV-3, 28.6 µM (inactive); with U-251, 6.62 µM (inactive); in the experiment on UO-31, 6.84 µM (inactive).
With `COC(=O)C1CC(C=[N+](C)C)=C(SC)N1` (configuration not stated), the GI50 in the experiment with A498, in the experiment with ACHN, in the experiment on BT-549, in the experiment on HCC 2998, with HT-29 and with Hs-578T was > 100 µM (inactive) each time. Besides, the GI50 with KM12, in the experiment on M14, in the experiment with MCF7, in the experiment on MDA-MB-231, in the experiment on MDA-N and in the experiment on MOLT-4 was > 100 µM (inactive) each time. The GI50 with NCI-H460 is 98.2 µM (inactive); with OVCAR-8, > 100 µM (inactive); in the experiment with SK-OV-3, > 100 µM (inactive); in the experiment on U-251 it was > 100 µM (inactive); with UO-31 it was > 100 µM (inactive).
Turning to `Oc1ccc(/C=C/c2cccc(/C=C/c3ccc(O)c(O)c3)n2)cc1O`, the GI50 in the experiment on A498 is 12.9 µM (inactive); in the experiment with A549, 5.25 µM (inactive); with ACHN, 5.14 µM (inactive); with BT-549, 10.9 µM (inactive); in the experiment with CCRF-CEM, 2.75 µM (inactive); in the experiment on HCC 2998, 16.5 µM (inactive). Besides, the GI50 is 10.8 µM (inactive) with HT-29; 54.5 µM (inactive) in the experiment with Hs-578T; 8.91 µM (inactive) in the experiment with KM12; 5.58 µM (inactive) in the experiment with M14; 10.2 µM (inactive) in the experiment with MCF7; 25.5 µM (inactive) with MDA-MB-231. The GI50 in the experiment on MDA-N was 7.53 µM (inactive); in the experiment with MOLT-4, 3.27 µM (inactive); in the experiment with NCI-H460, 5.57 µM (inactive); in the experiment with OVCAR-8, 6.81 µM (inactive); with SK-OV-3 it was 16.1 µM (inactive); in the experiment on U-251, 3.85 µM (inactive). In the experiment on UO-31, the GI50 was 3.85 µM (inactive).
Turning to `N#Cc1c(C#N)c(-c2ccccc2)n(/N=C\c2ccccc2)c1N`, the GI50 with A498 was 23.8 µM (inactive); with A549, 13 µM (inactive); with ACHN it was 14.2 µM (inactive); in the experiment with BT-549, 18.7 µM (inactive); in the experiment on CCRF-CEM, 12.3 µM (inactive); in the experiment on HCC 2998, 19.7 µM (inactive). Further, the GI50 was 26.1 µM (inactive) with HT-29; 15.9 µM (inactive) in the experiment with Hs-578T; 26.9 µM (inactive) in the experiment with KM12; 24.8 µM (inactive) in the experiment on M14; 11.8 µM (inactive) with MCF7; 16 µM (inactive) in the experiment with MDA-MB-231. The GI50 is 36.1 µM (inactive) in the experiment on MDA-N; 5.27 µM (inactive) in the experiment on MOLT-4; 20.8 µM (inactive) with NCI-H226; 18 µM (inactive) with OVCAR-8; 14.1 µM (inactive) with SK-OV-3; 16.5 µM (inactive) with U-251. Besides, the GI50 with UO-31 was 19 µM (inactive).
Turning to `Cc1ccsc1/C=N/NC1=NCCN1`, the GI50 in the experiment with A498, with A549, with ACHN, in the experiment on BT-549, in the experiment on CCRF-CEM and with HCC 2998 was > 100 µM (inactive) throughout. Besides, the GI50 in the experiment on HT-29, in the experiment with Hs-578T, with KM12, in the experiment with M14, in the experiment with MCF7 and in the experiment on MDA-MB-231 was > 100 µM (inactive) in each case. The GI50 with MDA-N, in the experiment with MOLT-4, in the experiment with NCI-H226, with OVCAR-8, in the experiment with SK-OV-3 and with U-251 was > 100 µM (inactive) throughout. In the experiment with UO-31, the GI50 was > 100 µM (inactive).
Regarding `CC(=O)Oc1ccc(-c2nnc(-c3ccc(OC(C)=O)cc3)nn2)cc1`, the GI50 in the experiment on A498 is > 100 µM (inactive); with A549 it was > 100 µM (inactive); in the experiment with ACHN, 59 µM (inactive); in the experiment with BT-549 it was > 100 µM (inactive); with CCRF-CEM it was 40.6 µM (inactive); with HT-29 it was > 100 µM (inactive). Also, the GI50 with Hs-578T, in the experiment on KM12, in the experiment with M14, in the experiment on MCF7, in the experiment with MDA-MB-231 and with MDA-N was > 100 µM (inactive) each time. The GI50 with MOLT-4, with NCI-H226, in the experiment with NCI-H460, in the experiment on OVCAR-8, with SK-OV-3 and in the experiment with U-251 was > 100 µM (inactive) in each case. The GI50 in the experiment with UO-31 was 64 µM (inactive).
With `CC(C)(Oc1ccc(C2C[C@H]2Cl)cc1)C(=O)O` (some centres not stated), the GI50 in the experiment with A498, in the experiment on A549, with BT-549, in the experiment on Hs-578T, in the experiment with KM12 and with MCF7 was > 100 µM (inactive) each time. Besides, the GI50 in the experiment with MDA-MB-231, in the experiment on MDA-N, in the experiment with MOLT-4, in the experiment on NCI-H460, with SK-OV-3 and in the experiment with U-251 was > 100 µM (inactive) each time.
